Laboratory results taken from US20030096379A1, “Method for producing tryptamine derivatives” (priority 2001, published 2003).

Key:
[1] = biological target: T1, pkAAAD (Sus scrofa, UniProt P80041); test: pkAAAD-catalyzed decarboxylation rate ratio by HPLC; type: biochemical, pig; details: HPLC of acid-quenched aliquots, ratio to 1
T1 construct: Frozen tissue was partially thawed in lysis buffer, then it was extracted and partially purified; from tissue; host or cells: pig kidney
T1 sequence (P80041 1-486): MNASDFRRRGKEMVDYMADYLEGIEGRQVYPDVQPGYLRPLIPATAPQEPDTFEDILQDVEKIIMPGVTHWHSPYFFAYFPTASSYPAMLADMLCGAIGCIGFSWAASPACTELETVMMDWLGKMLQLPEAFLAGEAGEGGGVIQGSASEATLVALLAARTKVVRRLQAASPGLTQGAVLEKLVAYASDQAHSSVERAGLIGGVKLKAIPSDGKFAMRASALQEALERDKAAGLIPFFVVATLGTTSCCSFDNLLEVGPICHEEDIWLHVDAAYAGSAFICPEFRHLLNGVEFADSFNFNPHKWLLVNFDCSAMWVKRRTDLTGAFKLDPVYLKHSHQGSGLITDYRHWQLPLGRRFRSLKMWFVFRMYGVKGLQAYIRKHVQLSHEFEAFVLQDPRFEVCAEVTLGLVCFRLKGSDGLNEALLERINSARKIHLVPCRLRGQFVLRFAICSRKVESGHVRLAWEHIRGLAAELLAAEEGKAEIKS
Procedure: Tryptophan synthase activity was assayed by monitoring the increase in absorbance at 290 nm of a mixture containing serine, indole and PLP (Higgins, W., et al., Biochemistry, 1979, 18, 4827). TnA-catalyzed tryptophan synthesis was also measured by the 290 nm assay, while the tryptophan lyase reaction rate was measured by monitoring the reduction in NADH in reaction mixtures containing L-tryptophan and lactate dehydrogenase, indicating the amount of pyruvate released. Tryptophan decarboxylase was assayed colorimetrically by monitoring the sabsorbance at 580 nm produced by serotonin (AAADs) or tryptamine (TDCs) following treatment of reaction aliquots with Ehrlich's reagent (4-N,N-(dimethyl)aminobenzaldehyde in ethanolic HCl; Nakazawa, H.; Kumagi, H.; Yamada, H. Biochem Biophys. Res. Commun., 1974, 61, 75-82). Serotonin could be detected with approximately 5-fold higher sensitivity by this method as compared with tryptamine. The Ehrlich reagent assay using a microtiter plate format for simultaneous analysis of multiple enzyme samples may also be used. HPLC analysis was performed on acid-quenched reaction aliquots by using a base-deactivated C8 reversed-phase support (Shandon Hypersil BD8). […]

[2] = biological target: T1, pkAAAD; details: literature (Sourkes 1987), ratio :1; cited from earlier work
[3] = biological target: T2, pig kidney aromatic amino acid decarboxylase (pkAAAD) (Sus scrofa, UniProt P80041); test: Substrate screen for tryptophan decarboxylation, pkAAAD; type: biochemical; design: key: +: a clear ninhydrin-positive spot at the Rf of standard tryptophan derivatives after 16-65 h; (+): a weak spot in the product region; −: no product observed; NR: experiment not run; details: tryptophan derivative, PLP, pH 7.5, 37° C.
T2 construct: Frozen tissue was partially thawed in lysis buffer, then it was extracted and partially purified; from tissue; host or cells: pig kidney
T2 sequence (P80041 1-486): T1 sequence (P80041 1-486)

[4] = biological target: T3, tryptophan decarboxylase TDC1 (Camptotheca acuminata, UniProt P93082); test: Substrate screen for tryptophan decarboxylation, TDC1; type: biochemical, C. accuminata; design: key: +: a clear ninhydrin-positive spot at the Rf of standard tryptophan derivatives after 16-65 h; (+): a weak spot in the product region; −: no product observed; NR: experiment not run; details: tryptophan derivative, PLP, pH 7.5, 37° C.
T3 construct: made in house; host or cells: E. coli DH5α (pKK233 plasmid from C. Nessler)
T3 sequence (P93082 1-502): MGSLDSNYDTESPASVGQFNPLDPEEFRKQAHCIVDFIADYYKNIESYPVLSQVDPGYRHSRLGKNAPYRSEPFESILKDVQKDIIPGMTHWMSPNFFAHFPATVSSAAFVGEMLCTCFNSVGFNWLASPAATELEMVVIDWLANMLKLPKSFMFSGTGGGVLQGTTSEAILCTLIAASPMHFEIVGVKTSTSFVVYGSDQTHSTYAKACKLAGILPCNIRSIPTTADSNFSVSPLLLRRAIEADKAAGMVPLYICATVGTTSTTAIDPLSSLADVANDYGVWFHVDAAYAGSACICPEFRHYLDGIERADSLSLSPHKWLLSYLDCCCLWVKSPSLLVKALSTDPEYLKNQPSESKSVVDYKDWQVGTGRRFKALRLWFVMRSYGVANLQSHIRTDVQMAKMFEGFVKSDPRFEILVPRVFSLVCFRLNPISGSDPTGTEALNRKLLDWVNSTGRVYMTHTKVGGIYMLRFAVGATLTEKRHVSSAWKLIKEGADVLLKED
Procedure: (§1) A mixture containing 1 μmole of the tryptophan derivative, 0.05 μmole of PLP and 50 μmol of L-serine in 40 mM pH 7.5 KPi buffer was warmed to 37° C., then enzyme solution was added to give a final volume of 1 mL. Aliquots (100 HL) were quenched at intervals and were evaporated in a Savant Speed-vac as in Example 6. For TLC analysis, CH2Cl2/EtOH/H2O/HOAc 49:49:1:1 was used as the solvent. The plates were visualized with short-wave UV light and ninhydrin as in Example 6.
(§2) HPLC techniques were used to monitor the decarboxylation of substituted tryptophans. Mass spectral analysis of the collected HPLC peaks was used to confirm the identity of several tryptamine derivatives, as shown in Table 5.

[5] = biological target: T4, tryptophan decarboxylase TDC2 (Camptotheca acuminata, UniProt P93083); test: Substrate screen for tryptophan decarboxylation, TDC2; type: biochemical, C. accuminata; design: key: +: a clear ninhydrin-positive spot at the Rf of standard tryptophan derivatives after 16-65 h; (+): a weak spot in the product region; −: no product observed; NR: experiment not run; details: tryptophan derivative, PLP, pH 7.5, 37° C.
T4 construct: made in house; host or cells: E. coli DH5α (pKK233 plasmid from C. Nessler)
T4 sequence (P93083 1-498): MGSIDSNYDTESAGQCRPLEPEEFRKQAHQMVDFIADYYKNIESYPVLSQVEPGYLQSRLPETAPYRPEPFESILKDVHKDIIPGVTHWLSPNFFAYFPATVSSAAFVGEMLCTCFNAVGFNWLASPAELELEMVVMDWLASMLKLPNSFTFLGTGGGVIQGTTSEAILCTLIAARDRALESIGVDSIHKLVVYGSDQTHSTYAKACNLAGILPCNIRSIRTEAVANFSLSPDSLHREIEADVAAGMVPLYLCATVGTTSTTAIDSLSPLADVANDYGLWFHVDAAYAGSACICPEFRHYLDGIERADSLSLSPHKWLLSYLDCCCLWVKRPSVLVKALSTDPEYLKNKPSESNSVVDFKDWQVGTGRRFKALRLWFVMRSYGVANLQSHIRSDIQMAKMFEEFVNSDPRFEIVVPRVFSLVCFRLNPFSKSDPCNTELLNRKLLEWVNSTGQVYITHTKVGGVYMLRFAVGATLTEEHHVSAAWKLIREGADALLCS
Procedure: as §1, §2

[6] = biological target: T5, TDC1 (Camptotheca acuminata, UniProt P93082); test: Relative decarboxylation rates by Ehrlich's reagent, TDC1; type: biochemical, C. accuminata
T5 construct: made in house; host or cells: E. coli DH5α (pKK233 plasmid from C. Nessler)
T5 sequence (P93082 1-502): T3 sequence (P93082 1-502)
Procedure: (§3) […] Reaction aliquots were quenched in microcentrifuge capsules containing 50 μL each of 6M HCl to quench the enzyme reaction at 2, 5, and 20 min. Quenched aliquots were heated at 50° C. for 40 min with 750 μL each of Ehrlich's reagent (2:24:74 w/v/v 4-(diethyl)aminobenzaldehyde: conc HCl: ethanol). Absorbance was read at 580-nm and compared with standards of serotonin (10-250 μM) or tryptamine (50 to 2000 μM).
(§4) Relative rates for decarboxylation of L-5-hydroxytryptophan (L-5-HOtrp) and L-tryptophan were determined for TDC1 and TDC2 by use of Ehrlich's reagent, discussed in Example 10.

[7] = biological target: T6, TDC2 (Camptotheca acuminata, UniProt P93083); test: Relative decarboxylation rates by Ehrlich's reagent, TDC2; type: biochemical, C. accuminata
T6 construct: made in house; host or cells: E. coli DH5α (pKK233 plasmid from C. Nessler)
T6 sequence (P93083 1-498): T4 sequence (P93083 1-498)
Procedure: as §3, §4

SMILES	rate ratio of DOPA decarboxylation relative to that of L-5-hydroxytryptophan [1]	accepted ratio of DOPA to L-5-hydroxytryptophan decarboxylation [2]	pkAAAD (decarboxylation substrate screen) [3]	TDC1 (decarboxylation substrate screen) [4]	TDC2 (decarboxylation substrate screen) [5]	ratio trp/5HOtrp TDC1 (relative decarboxylation rate) ([6]; pH 7.5)	ratio trp/5HOtrp TDC1 (relative decarboxylation rate) ([6]; pH 8.5)	ratio trp/5HOtrp TDC1 (relative decarboxylation rate) ([6]; pH 9.5)	ratio trp/5HOtrp TDC2 (relative decarboxylation rate) ([7]; pH 7.5)	ratio trp/5HOtrp TDC2 (relative decarboxylation rate) ([7]; pH 8.5)	ratio trp/5HOtrp TDC2 (relative decarboxylation rate) ([7]; pH 9.5)
N[C@@H](Cc1ccc(O)c(O)c1)C(=O)O [DOPA]	4.5	approximately 5									
N[C@@H](Cc1c[nH]c2ccccc12)C(=O)O [L-tryptophan]			(+)	+	+	15.1	10.5	10.3	64.1	38.3	53.6
